Experiment [1] relates to Peritoneal macrophage cell. The experiment is described as follows: Inhibition of LPS-induced nitric oxide production in C57BL/6J mouse peritoneal macrophages at 10 uM after 24 hrs by Griess reaction. The experiment is classed as functional. (The Griess reaction detects nitrite, a stable product of nitric oxide.)
Experiment [2] has as its system BGC-823. As to the kind of experiment: Cytotoxicity against human BGC823 cells at 10 uM after 96 hrs by MTT assay. The experiment is classed as functional, cell-based. In general terms: Tetrazolium dyes change colour on reduction, which living cells bring about.
The subject of experiment [3] is Bel-7402. The experiment is described as follows: Cytotoxicity against human Bel7402 cells at 10 uM after 96 hrs by MTT assay. The experiment is classed as functional, cell-based.
Experiment [4] concerns MCF7. As to the kind of experiment: Cytotoxicity against human MCF7 cells at 10 uM after 96 hrs by MTT assay. The experiment is classed as functional, cell-based.
For experiment [5], the system named is Liver microsomes. The experiment is described as follows: Antioxidant activity in rat Liver microsome assessed as inhibition of Fe2+-cystine-induced lipid peroxidation at 10 uM. In kind it is functional. On the technique in general: Liver microsomes are vesicles of endoplasmic reticulum, rich in cytochrome P450 enzymes.
In experiment [6] the test system is KETR3. The experiment is described as follows: Cytotoxicity against human Ketr3 cells at 10 uM after 96 hrs by MTT assay. In kind it is functional, cell-based.
Experiment [7] has as its system PC-12. As to the kind of experiment: Neuroprotective activity against serum deprivation-induced toxicity in rat PC12 cells assessed as increase in cell viability at 10 uM after 48 hrs by MTT assay. In kind it is functional.
In experiment [8] the test system is A549. As to the kind of experiment: Cytotoxicity against human A549 cells at 10 uM after 96 hrs by MTT assay. The experiment is classed as functional, cell-based.
The test system of experiment [9] is Human immunodeficiency virus 1. The experiment is described as follows: Antiviral activity against HIV1 NL4-3 infected in human 293T cells assessed as inhibition of viral replication at 10 uM after 48 hrs by luciferase reporter gene assay. The experiment is classed as functional, organism-based.
In experiment [10] the test system is WB-F344. The experiment is described as follows: Hepatoprotective activity against DL-galactosamine-induced cell damage in rat WB-F344 cells at 10 uM after 24 hrs by MTT assay. The experiment is classed as functional, cell-based.
In experiment [11] the test system is HCT-8. As to the kind of experiment: Cytotoxicity against human HCT8 cells at 10 uM after 96 hrs by MTT assay. The experiment is classed as functional, cell-based.

Activity calls are given as the source filed them. The rule behind the calls is not given here.

As for `C[C@@H]1C[C@H]2[C@@H]3CCC4=CC(=O)C=C[C@]4(C)[C@@]3(F)[C@@H](O)C[C@]2(C)[C@@]1(O)C(=O)CO` [DEXAMETHASONE], testing at 10 µM in experiment [1] gave an inhibition of 61.6%.
Regarding `COc1cc(-c2cc(=O)c3c(O)cc(O)cc3o2)cc(OC)c1O[C@@H](CO)[C@@H](O)c1ccc(O)cc1`, the result in experiment [2], in [3], in [4], in experiment [6], in experiment [8] and in experiment [10] was inactive. In addition, the outcome in experiment [11] was inactive. The inhibition entry in experiment [5] and in experiment [9] was “inactive” in each case. Also, in experiment [7], the Activity is 107.2%. In [1], this compound came in with an inhibition at 10 µM of 84.2%.
Consider `COc1cc2c(c(OC)c1O)[C@H]1c3c(cc(OC)c(O)c3OC)OC[C@@H](C2)[C@H]1CO`, for which the outcome in [2], in experiment [3], in experiment [4], in experiment [6], in [8] and in experiment [10] was inactive. For the same compound, the result in experiment [11] was inactive. For the same compound, the inhibition result in [5] and in experiment [9] was “inactive” throughout. Also, the inhibition at 10 µM in experiment [1] is below 30%.
`COc1cc([C@H](O)[C@H](CO)Oc2c(OC)cc(-c3cc(=O)c4c(O)cc(O)cc4o3)cc2OC)ccc1O` [SALCOLIN B]: the outcome in experiment [2], in experiment [3], in experiment [4], in experiment [6], in [8] and in experiment [10] was inactive. In addition, the result in experiment [11] was inactive. Besides, the inhibition result in experiment [5] and in experiment [9] was “inactive” each time. Besides, the Activity in [7] was 97.6%. In experiment [1], at 10 µM the inhibition was 71.7%.
For the compound `COc1cc(C(=O)[C@@H]2CO[C@H](c3cc(OC)c(O)c(OC)c3)[C@H]2CO)cc(OC)c1O`, the result in experiment [2], in [3], in experiment [4], in experiment [6], in [8] and in experiment [10] was inactive. Further, the outcome in experiment [11] was inactive. In addition, the inhibition entry in experiment [5] and in experiment [9] was “inactive” each time. The same compound yielded an inhibition at 10 µM in experiment [1] below 30%.
On to `COc1cc([C@H](O)[C@@H](CO)Oc2c(OC)cc([C@@H]3Oc4c(OC)cc(C=O)cc4[C@H]3CO)cc2OC)ccc1O`, for which the outcome in [2], in experiment [3], in [4], in [6], in [8] and in [10] was inactive. Besides, the result in experiment [11] was inactive. In addition, the inhibition entry in experiment [5] and in experiment [9] was “inactive” throughout. The compound further came in with an inhibition at 10 µM in experiment [1] below 30%.
With `COc1cc([C@@H]2OC[C@@H]3[C@H]2CO[C@H]3c2cc(OC)c(OC)c(OC)c2)cc(OC)c1O`, the outcome in [2], in [3], in [4], in experiment [6], in [8] and in experiment [10] was inactive. Also, the outcome in [11] was inactive. Further, the inhibition result in [5] and in experiment [9] was “inactive” throughout. Besides, the inhibition at 10 µM in experiment [1] is below 30%.
For the compound `COc1cc([C@H](O)[C@H](CO)Oc2c(OC)cc(C(=O)O)cc2OC)ccc1O`, the outcome in experiment [2], in experiment [3], in experiment [4], in experiment [6], in [8] and in [10] was inactive. Also, in [11], the outcome was inactive. For the same compound, the inhibition result in [5] and in experiment [9] was “inactive” each time. Also, the inhibition at 10 µM in experiment [1] was below 30%.
As for `COc1cc([C@H](O)[C@H](CO)Oc2c(OC)cc(O)cc2OC)ccc1O`, the outcome in experiment [2], in [3], in experiment [4], in [6], in experiment [8] and in experiment [10] was inactive. Also, the outcome in [11] was inactive. The inhibition entry in [5] and in experiment [9] was “inactive” throughout. In addition, the inhibition at 10 µM in experiment [1] was below 30%.
`COc1cc([C@@H]2O[C@@H](c3cc(OC)c(OC)c(OC)c3)[C@H](CO)[C@H]2CO)cc(OC)c1O`: the result in [2], in [3], in [4], in experiment [6], in experiment [8] and in experiment [10] was inactive. For the same compound, in experiment [11], the outcome was inactive. For the same compound, the inhibition result in experiment [5] and in experiment [9] was “inactive” each time. Besides, the inhibition at 10 µM in [1] was below 30%.
`COc1cc([C@@H](O)[C@H](CO)Oc2c(OC)cc(-c3cc(=O)c4c(O)cc(O)cc4o3)cc2OC)ccc1O`: the outcome in experiment [2], in experiment [3], in experiment [4], in experiment [6], in [8] and in [10] was inactive. Besides, the outcome in experiment [11] was inactive. The inhibition entry in experiment [5] and in experiment [9] was “inactive” throughout. In experiment [1], this compound yielded an inhibition at 10 µM below 30%.
`COc1cc([C@@H](O)[C@H](CO)Oc2c(OC)cc([C@@H]3OC[C@@H]4[C@H]3CO[C@H]4c3cc(OC)c(O[C@@H](CO)[C@H](O)c4ccc(O)c(OC)c4)c(OC)c3)cc2OC)ccc1O`: the result in [2], in [3], in [4], in experiment [6], in experiment [8] and in experiment [10] was inactive. Further, in experiment [11], the outcome was inactive. Moreover, the inhibition result in experiment [5] and in experiment [9] was “inactive” throughout. In experiment [1], this compound displayed an inhibition at 10 µM below 30%.
Take `COc1cc([C@@H]2Oc3c(OC)cc(/C=C/CO)cc3[C@H]2CO)cc(OC)c1OC`: the result in [2], in experiment [3], in [4], in [6], in experiment [8] and in experiment [10] was inactive. In experiment [11], the result was inactive. Further, the inhibition entry in [5] and in [9] was “inactive” in each case. The same compound registered an inhibition at 10 µM in experiment [1] below 30%.
For `COc1cc(-c2cc(=O)c3c(O)cc(O)cc3o2)cc(OC)c1O[C@@H](CO)[C@H](O)c1ccc(O)cc1`, the result in experiment [2], in [3], in [4], in experiment [6], in experiment [8] and in [10] was inactive. In addition, in [11], the result was inactive. Besides, the inhibition entry in experiment [5] and in experiment [9] was “inactive” throughout. In addition, the Activity in [7] was 80.7%. Further, the inhibition at 10 µM in experiment [1] is below 30%.
As to `COc1cc([C@H](O)[C@H](CO)Oc2c(OC)cc([C@@H]3OC[C@@H]4[C@H]3CO[C@H]4c3cc(OC)c(O[C@@H](CO)[C@@H](O)c4ccc(O)c(OC)c4)c(OC)c3)cc2OC)ccc1O`, the outcome in [2], in experiment [3], in experiment [4], in [6], in experiment [8] and in [10] was inactive. In addition, in experiment [11], the outcome was inactive. In addition, the inhibition result in [5] and in experiment [9] was “inactive” each time. In [1], the inhibition at 10 µM was below 30%.

One may read the inhibition as the change of the read-out against control, counted positive when it falls.

These data come from ChEMBL document CHEMBL1795288, “Lignans and neolignans from Sinocalamus affinis and their absolute configurations” (2011).
